By Ki is commonly meant a dissociation constant, usually derived from enzyme kinetics or from competition with a known ligand.

For one assay, the target named is Cannabinoid receptor 1 (Homo sapiens, UniProt P21554). As to the kind of experiment: Binding affinity to CB1 receptor.
Another assay has as its target Cannabinoid receptor 2 (Homo sapiens, UniProt P34972). As to the kind of experiment: Binding affinity to CB2 receptor.

Sequence of Cannabinoid receptor 1 (P21554 whole entry): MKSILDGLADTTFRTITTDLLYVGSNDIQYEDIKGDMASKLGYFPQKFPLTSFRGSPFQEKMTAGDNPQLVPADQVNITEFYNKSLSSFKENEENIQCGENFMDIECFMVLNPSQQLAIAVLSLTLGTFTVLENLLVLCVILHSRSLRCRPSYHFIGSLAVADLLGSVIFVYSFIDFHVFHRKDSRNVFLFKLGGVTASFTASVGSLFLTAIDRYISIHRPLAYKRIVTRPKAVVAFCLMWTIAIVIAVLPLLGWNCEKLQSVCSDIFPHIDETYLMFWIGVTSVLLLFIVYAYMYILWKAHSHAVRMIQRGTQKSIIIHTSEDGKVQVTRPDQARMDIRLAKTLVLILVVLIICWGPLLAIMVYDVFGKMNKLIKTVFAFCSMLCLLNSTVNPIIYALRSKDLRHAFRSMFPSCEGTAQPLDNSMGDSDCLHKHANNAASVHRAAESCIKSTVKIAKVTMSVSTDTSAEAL
Sequence of Cannabinoid receptor 2 (P34972 whole entry): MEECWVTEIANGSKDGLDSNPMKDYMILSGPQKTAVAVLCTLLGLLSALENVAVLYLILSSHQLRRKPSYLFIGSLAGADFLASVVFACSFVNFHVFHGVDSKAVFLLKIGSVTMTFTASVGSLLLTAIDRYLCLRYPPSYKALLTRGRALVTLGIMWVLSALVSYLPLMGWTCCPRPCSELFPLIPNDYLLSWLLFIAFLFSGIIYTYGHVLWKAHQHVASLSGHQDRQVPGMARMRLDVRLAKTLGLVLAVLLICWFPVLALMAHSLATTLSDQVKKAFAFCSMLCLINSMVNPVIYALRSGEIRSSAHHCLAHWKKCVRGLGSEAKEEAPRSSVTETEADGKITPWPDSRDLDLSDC

As to `CC1=CC[C@@H]2[C@@H](C1)c1c(O)cc(C=C3C4CC5CC(C4)CC3C5)cc1OC2(C)C`, the Ki at Cannabinoid receptor 1 turned out to be 48.6 nM; on Cannabinoid receptor 2, 8.9 nM.

Consider `CC1=CC[C@@H]2[C@@H](C1)c1c(O)cc(C3C4CC5CC(C4)CC3C5)cc1OC2(C)C` (stereo not given in full), for which the Ki was 34.9 nM at Cannabinoid receptor 1 and 14 nM on Cannabinoid receptor 2.

For the compound `CC1=CC[C@@H]2[C@@H](C1)c1c(O)cc(CC3C4CC5CC(C4)CC3C5)cc1OC2(C)C` (stereo not given in full), the Ki on Cannabinoid receptor 1 was determined as 79.7 nM; at Cannabinoid receptor 2, 76 nM.

In the case of `CC1=CC[C@@H]2[C@@H](C1)c1c(O)cc(CC34CC5CC(CC(C5)C3)C4)cc1OC2(C)C`, the figures for the Ki at Cannabinoid receptor 1 and at Cannabinoid receptor 2 were 29.3 nM and 26.9 nM, respectively.

Take `CC(=O)Nc1cccc(C(C)(C)c2cc(O)c3c(c2)OC(C)(C)[C@@H]2CC=C(C)C[C@@H]32)c1`: the Ki on Cannabinoid receptor 1 worked out at 13.7 nM; on Cannabinoid receptor 2 it was 13.6 nM.

(Values after ChEMBL document CHEMBL1153934, “Quantitative structure-activity relationship (QSAR) for a series of novel cannabinoid derivatives using descriptors derived from semi-empirical quantum-chemical calculations” (Bioorg Med Chem, 2009).)
